Values of other authors as cited in patent US20080286208A1, “Eye treatment” (priority 2001, published 2008).
Entries after “also recorded” stand apart in the source; their conditions may differ. Like-named read-outs stand apart in the source and are kept apart here.

Tested on: eye
Conditions: for Stinging when applied to the eye: applied to the eye in suitable dosage

| SMILES | Stinging when applied to the eye | Stinging when applied to the eye (listed as Rose bengal) | Toxicity to the eye (post instillation) |
| --- | --- | --- | --- |
| CN(C)c1ccc(C(=C2C=CC(=[N+](C)C)C=C2)c2c(O)c(S(=O)(=O)[O-])cc3cc(S(=O)(=O)[O-])ccc23)cc1.[Na+] [Lissamine green] | without the disadvantages of toxicity and sting potential; also recorded: does not induce stinging; also recorded: does not significantly sting |  |  |
| O=C([O-])c1c(Cl)c(Cl)c(Cl)c(Cl)c1-c1c2cc(I)c(=O)c(I)c-2oc2c(I)c([O-])c(I)cc12.[Na+].[Na+] [rose bengal] | may result in stinging and pain to an extent that can be disabling for hours post instillation; also recorded: may produce dose related stinging; also recorded: has been found to sting | has a sting potential | known to be toxic |
